Experimental data: PMC5773580, “A synthetic combinatorial approach to disabling deviant Hedgehog signaling” (Scientific Reports, 2018)

How the values were obtained:
[1] = system: SHH-induced GLI activity (GLI-BS reporter) in NIH3T3; test: HH pathway reporter (GLI-BS reporter) assay, +Shh in NIH3T3; format: cell-based; conditions: Mus musculus; +Shh in NIH3T3, 48 hrs with compound
Protocol: (§1) The HH-responsive firefly luciferase reporter (GLI-BS) and a control Renilla luciferase reporter (SV40-RL) were transfected into indicated cell lines using Effectene (Qiagen) either alone or with indicated DNAs. 24 hrs after transfection, cells were switched to low serum media (3% calf serum), and grown for another 48 hrs. in 5% CO2 in the presence/absence of compounds. 3T3-ShhFL cell line that stably expressing SHH and the two reporters were cultured in a similar fashion. FL and RL activities in lysate generated using Passive Lysis Buffer (Promega) were then assessed using the Dual-Luciferase kit (Promega) and a 96-well plate reading luminometer (BMG). The ratio of FL/RL was calculated and the averaged ratios from three replicates were reported.

[2] = system: GLI-BS reporter in Ptch1-/- MEFs; test: GLI-BS reporter assay in Ptch1-/- MEFs; format: cell-based
Protocol: as §1

[3] = system: SMO-L412F in NIH3T3 (GLI-BS reporter); test: GLI-BS reporter assay, NIH3T3 cells with SMO-L412F DNA; format: cell-based; conditions: Mus musculus
Protocol: as §1

[4] = system: HDAC activity (acetylated tubulin) in NIH-3T3 cells; test: Acetylation assay, Western blot of acetylated tubulin; format: cell-based; conditions: 48hrs
Protocol: (§2) For analyzing acetylation status of histone 3 and tubulin, NIH3T3 cells were grown to confluence in 6-well plates. After 48hrs of treatment with indicated chemicals, cells were lysed in RIPA buffer or 1% NP40/phosphate buffered saline/protease inhibitors (SIGMA, #S8820), the lysate cleared using a microcentrifuge, then 6 × sample loading buffer (Bioland Scientific) added to the supernatant. Proteins were separated on SDS-PAGE (BioRad Criterion TGX Precast Gels). Antibodies used for analyzing the blots were: acetylated tubulin (SIGMA, #T6793), tubulin, acetyl-histone H3 (Lys23), and histone H3 (Cell Signaling Technology, #2125 S, #8848 and #9717, respectively). Chemiluminescence was detected using a Li-COR Odyssey Imaging System.

[5] = system: nuclear HDAC activity (Ac-H3) in NIH-3T3 cells; test: Acetylation assay, Western blotting for acetylated histone 3 (Ac-H3); format: cell-based; conditions: 48hrs, Western blot
Protocol: as §2

[6] = system: RMS13 cells (GLI1 amp), GLI-BS reporter; test: GLI-BS reporter assay in RMS13 cells (GLI1 amplification); format: cell-based
Protocol: as §1

[7] = system: SMO-M2 in NIH3T3 (GLI-BS reporter); test: GLI-BS reporter assay, NIH3T3 cells with SMO-M2 DNA; format: cell-based; conditions: Mus musculus
Protocol: as §1

Caco-2 cells = test: Caco-2 transwell cell permeability assay read out with 3T3-ShhFL reporter cells; format: in vitro ADME; conditions: 10μM, 6hrs, "B" CM tested on 3T3-ShhFL cells
Protocol: Caco-2 cell permeability assay was previously described. Briefly, Caco-2 cells were grown to confluence in 12-well transwell plates. Culture medium was replaced with 10μM of compounds in DMEM/ 3% calf serum and incubated for 6hrs. Diluted media were added to confluent 3T3-ShhFL cells for 48hrs and measure the Hh pathway activity by reporter assay.

[8] = system: GLI1 binding to DNA in RMS13 cells; test: GLI DNA binding assay (biotinylated oligo pulldown); format: cell-based; conditions: lysate of RMS13 cells treated 48 hrs
Protocol: A detailed protocol for DNA binding assay was previously described. Briefly, cells treated for 48 hrs with compounds were lysed in 1% NP40/phosphate buffered saline/protease inhibitors and cleared using a microcentrifuge. The lysate was then incubated with 0.5 µM of double-strand biotinylated oligonucleotides and 40 µl streptavidin-agarose bead suspension (Thermo Scientific, 20349) for 2 hrs. The streptavidin agarose beads are washed (3X) with 1% NP40/phosphate buffered saline/protease inhibitors and eluted with 2X Laemmli sample buffer. The supernatants are separated on SDS-PAGE and analyzed using western blotting. Antibodies were purchased from the following vendors: GLI1 (Cell Signaling Technology, #2534) and actin (SIGMA, #A5441).

`O=C(CCCCCCC(=O)Nc1ccc(Cl)c(C(=O)Nc2cccc(NC(=O)c3cc(Cl)ccc3Cl)c2)c1)NO` [IHR (meta)-SAHA] showed an IC50 [1] of 2300 nM, an IC50 [2] of 2500 nM and an IC50 [3] of 920 nM. The “HDAC inhibitory activity, acetylated tubulin accumulation (ratio to total tubulin), compared with SAHA” value [4] was “increase in anti-HDAC activity”, the “HDAC inhibitory activity, accumulation of acetylated histone 3 (ratio Ac-H3 to total H3)” value [5] was “retain HDAC inhibitory activity” and the IC50 [6] was 1200 nM. For the same compound, the IC50 [7] was 850 nM.
With `O=C(Nc1ccc(NC(=O)c2cc(Cl)ccc2Cl)cc1)c1cc(Cl)ccc1Cl` [IHR-1, reference compound] the IC50 [1] was 7 nM and the IC50 [2] was 25 nM.
In the case of `CC(C)(C)OC(=O)NCCCCCCC(=O)Nc1ccc(Cl)c(C(=O)Nc2ccc(NC(=O)c3cc(Cl)ccc3Cl)cc2)c1` [IHR-C7], the IC50 [1] is reported as 4 nM and the “ability to transverse a cell monolayer (cell permeability)” value (Caco-2 cells) is reported as “improved”.
`CC(C)(C)OC(=O)Nc1ccc(Cl)c(C(=O)Nc2ccc(NC(=O)c3cc(Cl)ccc3Cl)cc2)c1` [IHR-NBoc, tert-butyl (4-chloro-3-((4-(2,5-dichlorobenzamido)phenyl)carbamoyl)phenyl)carbamate] was tested, and the IC50 [1] was 1.9 nM.
With `O=C(CCCCCCC(=O)Nc1ccccc1)NO` [SAHA, suberanilohydroxamic acid] the “GLI1 binding to immobilized oligos with consensus GLI binding sequence” value [8] was “loss of GLI1 binding”.
